# Measured values reported in ChEMBL document CHEMBL3885861, “Open TG-GATES”.
# Species on record: Rattus norvegicus
# Assay: Open TG-GATES - Regimen: Daily Repeat
# Assay type: toxicity, organism-based, Sprague-Dawley
# Design: regimen Daily Repeat, gender Male, age 6 weeks
# Conditions: in vivo, po, 100 mg/kg, route gavage, dose level Low; for APTT / Bas / Eos / Fbg / Hb / Ht / Lym / MCH / MCHC / MCV / Mono / Neu / PT / Plat / RBC / Ret / WBC: tissue Blood; for KIDNEY_L / KIDNEY_R / KIDNEY_TOTAL: tissue Kidney; for LIVER: tissue Liver; for A/G / ALP / ALT / AST / BUN / CRE / Ca / Cl / DBIL / GLC / IP / K / LDH / Na / PL / RALB / TBIL / TC / TG / TP / gamma-GTP: tissue Plasma
compound,measurement,setting,value
COC1=CC(=O)C[C@@H](C)[C@]12Oc1c(Cl)c(OC)cc(OC)c1C2=O [GRISEOFULVIN],TERMINAL_BW,"72 h, time 3 day",226.6 g
same,APTT,"72 h, time 3 day",19.6 s
same,Bas,"72 h, time 3 day",0%
same,Eos,"72 h, time 3 day",1%
same,Fbg,"72 h, time 3 day",220 mg/dL
same,Hb,"72 h, time 3 day",13.2 g/dL
same,Ht,"72 h, time 3 day",39.1%
same,Lym,"72 h, time 3 day",79.6%
same,MCH,"72 h, time 3 day",22.1 pg
same,MCHC,"72 h, time 3 day",33.8%
same,MCV,"72 h, time 3 day",65.4 fL
same,Mono,"72 h, time 3 day",2.4%
same,Neu,"72 h, time 3 day",16.4%
same,PT,"72 h, time 3 day",12.6 s
same,Plat,"72 h, time 3 day",116.4 x10_4/uL
same,RBC,"72 h, time 3 day",599.4 x10_4/ul
same,Ret,"72 h, time 3 day",7.5%
same,WBC,"72 h, time 3 day",97.1 x10_2/uL
same,KIDNEY_L,"72 h, time 3 day",1 g
same,KIDNEY_R,"72 h, time 3 day",1 g
same,KIDNEY_TOTAL,"72 h, time 3 day",2 g
same,LIVER,"72 h, time 3 day",11.2 g
same,A/G,"72 h, time 3 day",1.6
same,ALP,"72 h, time 3 day",947.8 IU/L
same,ALT,"72 h, time 3 day",35.8 IU/L
same,AST,"72 h, time 3 day",63 IU/L
same,BUN,"72 h, time 3 day",14.6 mg/dL
same,CRE,"72 h, time 3 day",0.4 mg/dL
same,Ca,"72 h, time 3 day",10.8 mg/dL
same,Cl,"72 h, time 3 day",103.8 meq/L
same,DBIL,"72 h, time 3 day",0.086 mg/dL
same,GLC,"72 h, time 3 day",213.6 mg/dL
same,IP,"72 h, time 3 day",7.9 mg/dL
same,K,"72 h, time 3 day",3.9 meq/L
same,LDH,"72 h, time 3 day",158.2 IU/L
same,Na,"72 h, time 3 day",140.8 meq/L
same,PL,"72 h, time 3 day",146 mg/dL
same,RALB,"72 h, time 3 day",3.4 g/dL
same,TBIL,"72 h, time 3 day",0.1 mg/dL
same,TC,"72 h, time 3 day",80.6 mg/dL
same,TG,"72 h, time 3 day",62.8 mg/dL
same,TP,"72 h, time 3 day",5.5 g/dL
same,gamma-GTP,"72 h, time 3 day",1.2 IU/L
same,TERMINAL_BW,"[…], time 7 day",262.3 g
same,TERMINAL_BW,"[…], time 14 day",308.3 g
same,TERMINAL_BW,"[…], time 28 day",393.4 g
same,APTT,"[…], time 7 day",19.8 s
same,Bas,"[…], time 7 day",0%
same,Eos,"[…], time 7 day",1%
same,Fbg,"[…], time 7 day",229.4 mg/dL
same,Hb,"[…], time 7 day",13.6 g/dL
same,Ht,"[…], time 7 day",40.4%
same,Lym,"[…], time 7 day",80.4%
same,MCH,"[…], time 7 day",21.3 pg
same,MCHC,"[…], time 7 day",33.8%
same,MCV,"[…], time 7 day",63 fL
same,Mono,"[…], time 7 day",2.2%
same,Neu,"[…], time 7 day",16%
same,PT,"[…], time 7 day",12.2 s
same,Plat,"[…], time 7 day",141.9 x10_4/uL
same,RBC,"[…], time 7 day",641.4 x10_4/ul
same,Ret,"[…], time 7 day",5.7%
same,WBC,"[…], time 7 day",131.1 x10_2/uL
same,APTT,"[…], time 14 day",20.1 s
same,Bas,"[…], time 14 day",0%
same,Eos,"[…], time 14 day",1%
same,Fbg,"[…], time 14 day",225.6 mg/dL
same,Hb,"[…], time 14 day",14.2 g/dL
same,Ht,"[…], time 14 day",42.2%
same,Lym,"[…], time 14 day",78%
same,MCH,"[…], time 14 day",20.4 pg
same,MCHC,"[…], time 14 day",33.7%
same,MCV,"[…], time 14 day",60.6 fL
same,Mono,"[…], time 14 day",3.2%
same,Neu,"[…], time 14 day",17.2%
same,PT,"[…], time 14 day",12.3 s
same,Plat,"[…], time 14 day",129.7 x10_4/uL
same,RBC,"[…], time 14 day",696.2 x10_4/ul
same,Ret,"[…], time 14 day",2.8%
same,WBC,"[…], time 14 day",131.1 x10_2/uL
same,APTT,"[…], time 28 day",21.2 s
same,Bas,"[…], time 28 day",0%
same,Eos,"[…], time 28 day",1%
same,Fbg,"[…], time 28 day",219.6 mg/dL
same,Hb,"[…], time 28 day",15 g/dL
same,Ht,"[…], time 28 day",44.1%
same,Lym,"[…], time 28 day",81.8%
same,MCH,"[…], time 28 day",19.5 pg
same,MCHC,"[…], time 28 day",34%
same,MCV,"[…], time 28 day",57.2 fL
same,Mono,"[…], time 28 day",2.2%
same,Neu,"[…], time 28 day",14.8%
same,PT,"[…], time 28 day",12.5 s
same,Plat,"[…], time 28 day",121.1 x10_4/uL
same,RBC,"[…], time 28 day",772 x10_4/ul
same,Ret,"[…], time 28 day",2.7%
same,WBC,"[…], time 28 day",138.9 x10_2/uL
same,KIDNEY_L,"[…], time 7 day",1.1 g
same,KIDNEY_R,"[…], time 7 day",1.1 g
same,KIDNEY_TOTAL,"[…], time 7 day",2.3 g
same,KIDNEY_L,"[…], time 14 day",1.2 g
same,KIDNEY_R,"[…], time 14 day",1.2 g
same,KIDNEY_TOTAL,"[…], time 14 day",2.4 g
same,KIDNEY_L,"[…], time 28 day",1.4 g
same,KIDNEY_R,"[…], time 28 day",1.4 g
same,KIDNEY_TOTAL,"[…], time 28 day",2.9 g
same,LIVER,"[…], time 7 day",12.7 g
same,LIVER,"[…], time 14 day",13.7 g
same,LIVER,"[…], time 28 day",16.7 g
same,A/G,"[…], time 7 day",1.5
same,ALP,"[…], time 7 day",865.8 IU/L
same,ALT,"[…], time 7 day",36.2 IU/L
same,AST,"[…], time 7 day",62.2 IU/L
same,BUN,"[…], time 7 day",15.4 mg/dL
same,CRE,"[…], time 7 day",0.4 mg/dL
same,Ca,"[…], time 7 day",10.7 mg/dL
same,Cl,"[…], time 7 day",103.8 meq/L
same,DBIL,"[…], time 7 day",0.08 mg/dL
same,GLC,"[…], time 7 day",206.2 mg/dL
same,IP,"[…], time 7 day",7.1 mg/dL
same,K,"[…], time 7 day",3.8 meq/L
same,LDH,"[…], time 7 day",162.6 IU/L
same,Na,"[…], time 7 day",142 meq/L
same,PL,"[…], time 7 day",135.2 mg/dL
same,RALB,"[…], time 7 day",3.4 g/dL
same,TBIL,"[…], time 7 day",0.1 mg/dL
same,TC,"[…], time 7 day",75.4 mg/dL
same,TG,"[…], time 7 day",75 mg/dL
same,TP,"[…], time 7 day",5.7 g/dL
same,gamma-GTP,"[…], time 7 day",1 IU/L
same,A/G,"[…], time 14 day",1.5
same,ALP,"[…], time 14 day",701.8 IU/L
same,ALT,"[…], time 14 day",35.2 IU/L
same,AST,"[…], time 14 day",57.4 IU/L
same,BUN,"[…], time 14 day",15.2 mg/dL
same,CRE,"[…], time 14 day",0.5 mg/dL
same,Ca,"[…], time 14 day",10.6 mg/dL
same,Cl,"[…], time 14 day",103.2 meq/L
same,DBIL,"[…], time 14 day",0.1 mg/dL
same,GLC,"[…], time 14 day",215.2 mg/dL
same,IP,"[…], time 14 day",7.4 mg/dL
same,K,"[…], time 14 day",4.1 meq/L
same,LDH,"[…], time 14 day",171.8 IU/L
same,Na,"[…], time 14 day",140.6 meq/L
same,PL,"[…], time 14 day",138.8 mg/dL
same,RALB,"[…], time 14 day",3.5 g/dL
same,TBIL,"[…], time 14 day",0.2 mg/dL
same,TC,"[…], time 14 day",72.6 mg/dL
same,TG,"[…], time 14 day",92.4 mg/dL
same,TP,"[…], time 14 day",5.8 g/dL
same,gamma-GTP,"[…], time 14 day",1 IU/L
same,A/G,"[…], time 28 day",1.3
same,ALP,"[…], time 28 day",684.6 IU/L
same,ALT,"[…], time 28 day",31 IU/L
same,AST,"[…], time 28 day",55.8 IU/L
same,BUN,"[…], time 28 day",16 mg/dL
same,CRE,"[…], time 28 day",0.5 mg/dL
same,Ca,"[…], time 28 day",10.3 mg/dL
same,Cl,"[…], time 28 day",104.2 meq/L
same,DBIL,"[…], time 28 day",0.086 mg/dL
same,GLC,"[…], time 28 day",235.8 mg/dL
same,IP,"[…], time 28 day",6.4 mg/dL
same,K,"[…], time 28 day",3.5 meq/L
same,LDH,"[…], time 28 day",162.2 IU/L
same,Na,"[…], time 28 day",141.4 meq/L
same,PL,"[…], time 28 day",120.4 mg/dL
same,RALB,"[…], time 28 day",3.4 g/dL
same,TBIL,"[…], time 28 day",0.1 mg/dL
same,TC,"[…], time 28 day",66.2 mg/dL
same,TG,"[…], time 28 day",82 mg/dL
same,TP,"[…], time 28 day",6 g/dL
same,gamma-GTP,"[…], time 28 day",0.8 IU/L
